# Results taken from PubChem BioAssay (NCI).
#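 These data come from cells grown in 96-well plates and exposed to compound for 48 hours at five concentrations. GI50: concentration for 50% inhibition of growth. TGI marks complete inhibition of growth.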
# How the values were obtained:
# Test in all cases: growth of human tumour cells (NCI), 48 h
# [1] = test system: SF-295 CNS
# [2] = test system: HCT-116 colon
# [3] = test system: COLO 205 colon
# [4] = test system: NCI-H522 lung
# [5] = test system: RXF 393 renal
# [6] = test system: HOP-92 NSCLC
# [7] = test system: HOP-62 NSCLC
# [8] = test system: M14 melanoma
# [9] = test system: MALME-3M melanoma
# [10] = test system: NCI-H460 lung
# [11] = test system: ACHN renal
# [12] = test system: HL-60(TB) leukemia
# [13] = test system: MCF7 breast
# [14] = test system: SNB-19 CNS
# [15] = test system: A498 renal
# [16] = test system: SR leukemia
# [17] = test system: NCI-H23 lung
# [18] = test system: SF-268 CNS
# [19] = test system: MDA-MB-468 breast
# [20] = test system: KM12 colon
# [21] = test system: SF-539 CNS
# [22] = test system: MDA-MB-435
# [23] = test system: HCC-2998 colon
# [24] = test system: IGROV1 ovarian
# [25] = test system: 786-0 renal
# [26] = test system: HT29 colon
# [27] = test system: NCI-H226 lung
# [28] = test system: CAKI-1 renal
smiles,measurement,setting,value
Clc1ccc(-c2nc3c4c(-c5ccccc5)c(-c5ccccc5)n(Cc5ccccc5)c4ncn3n2)cc1,GI50,[1],11.5 µM
same,TGI,[1],25.7 µM
same,GI50,[2],3.53 µM
same,TGI,[2],35.2 µM
same,GI50,[3],4.66 µM
same,TGI,[3],16.8 µM
same,GI50,[4],5.95 µM
same,TGI,[4],43.7 µM
same,GI50,[5],14.2 µM
same,TGI,[5],39.9 µM
same,GI50,[6],1.9 µM
same,TGI,[6],9.53 µM
same,GI50,[7],16.1 µM
same,TGI,[7],38.4 µM
same,GI50,[8],12 µM
same,TGI,[8],77.7 µM
same,GI50,[9],2.75 µM
same,TGI,[9],9.5 µM
same,GI50,[10],8.24 µM
same,TGI,[10],35.4 µM
same,GI50,[11],20.8 µM
same,TGI,[11],79.7 µM
same,GI50,[12],3.08 µM
same,TGI,[12],15.5 µM
same,GI50,[13],8.31 µM
same,TGI,[13],61.8 µM
same,GI50,[14],4.8 µM
same,TGI,[14],> 100 µM
same,GI50,[15],23 µM
same,TGI,[15],63 µM
same,GI50,[16],13 µM
same,TGI,[16],36.5 µM
same,GI50,[17],6.88 µM
same,TGI,[17],44.4 µM
same,GI50,[18],12.2 µM
same,TGI,[18],> 100 µM
same,GI50,[19],2.84 µM
same,TGI,[19],10.3 µM
same,GI50,[20],5.17 µM
same,TGI,[20],36.5 µM
same,GI50,[21],15.8 µM
same,TGI,[21],33.5 µM
same,GI50,[22],4.92 µM
same,TGI,[22],71.3 µM
same,GI50,[23],6.37 µM
same,TGI,[23],39.7 µM
same,GI50,[24],8.02 µM
same,TGI,[24],85.8 µM
same,GI50,[25],12.6 µM
same,TGI,[25],93.3 µM
same,GI50,[26],6.18 µM
same,TGI,[26],> 100 µM
same,GI50,[27],16.3 µM
same,TGI,[27],56.9 µM
same,GI50,[28],21.4 µM
